# Values joined by “and” are separate entries in the source; they are usually repeats but may differ in a detail not shown here. Equal entries are not always repeated. Where two headings read alike, the source gives them in different places.
# Columns and labels:
# [1] = test system: S. aureus strain 1 (MDR clinical isolate, MRSA, mecA positive); test: MIC/MBC by broth micro-dilution (CLSI); type: cell-based, Staphylococcus aureus; details: S. aureus Strain 1; for MBC: in square brackets
# Protocol: (§1) The compounds were initially tested with a methicillin-resistant S. aureus and an E. faecalis clinical isolates (details in the experimental section), two MDR strains according to definition by Magiorakos et al.. The activity of studied compounds was assessed by broth micro-dilution method. Minimal Inhibitory Concentration (MIC), and Minimal Bactericidal Concentration (MBC) were determined and possible bacteriostatic or bactericidal activity was also investigated.
# (§2) MICs and MBCs were determined according to CLSI (Clinical and Laboratory Standards Institute) guidelines, in triplicate. Results are shown as modal values of the three replicates. According to MIC and MBC data, the killing rate was calculated as the ratio between MBC and MIC on which basis it is possible to define the compounds tested as bactericides (killing rate = 1–4), or bacteriostatic (killing rate > 4).
# (§3) Preparation of the solution containing molecules: for each molecule to be tested, solutions were made as DMSO stock, with a concentration of 2.560 mg/mL. Scalar dilutions were than prepared directly on plates by using Mueller Hinton Broth (MHB) as a growth medium (range 0.5–256 µg/mL).
# (§4) Bacterial suspension preparation: cryostrains preserved at −80 °C were recovered by incubation in growth medium (Brain Heart Infusion Broth, BHI) for 24–48 h at 35 ± 2 °C followed by passages in agar growth medium (Columbia Blood Agar). Colonies with less than 30 h were suspended in MHB with the purpose to prepare a bacterial suspension with a turbidity of 0.5 MF, containing approximately 1.5 × 10^8 cfu/mL. This suspension was than diluted in MHB until reaching a final concentration of 5 × 10^4 CFU/well. Simultaneously, check in broth-microdilution only with solvent (in order to exclude that the effect of growth inhibition might be due to the drug solution solvent), positive growth control in absence of DMSO and drug, and negative purity control only with injection broth were performed.
# S. aureus strain 1 (collection, MDR): mecA positive; MRSA, β-lactamase positive, resistant to ciprofloxacin, gentamicin and erythromycin.
# [2] = test system: E. faecalis strain 1 (MDR clinical isolate); test: MIC/MBC by broth micro-dilution (CLSI); type: cell-based, Enterococcus faecalis; details: for MBC: in square brackets
# Protocol: as §1, §2, §3, §4
# E. faecalis strain 1 (collection, MDR) vanA/B negative; aminoglycosides high-level resistant to aminoglycosides (gentamicin and streptomycin) and ampicillin.
# [3] = test system: tumor cell line IGROV-1; details: ± SD, read-out: IC50 (concentration required for 50% inhibition of cell growth), cited from earlier work
# [4] = Staphylococcus aureus, MRSA, modal value of three replicates, read-out: MIC
# [5] = Staphylococcus aureus, MRSA, modal value, read-out: MIC
# [6] = Enterococcus faecalis, modal value of three replicates, read-out: MIC
# [7] = Enterococcus faecalis, modal value, read-out: MIC
# [8] = modal value of three replicates
# [9] = Staphylococcus aureus, MRSA, modal value
# [10] = Enterococcus faecalis, modal value
SMILES,"MIC [1, 4] [µg/mL]","MIC [1, 5] [µM]","MIC [2, 6] [µg/mL]","MIC [2, 7] [µM]",IC50 ([3]; ref [13]) [µM],"MIC [1, 8]","MBC [1, 9]","MBC [2, 10]","MIC [2, 8]",IC50 ([3]; ref [15]) [µM],IC50 ([3]; ref [14]) [µM]
CC(C)(C)c1cc(-c2ccc(/C=C/C(=O)O)cc2)ccc1O [Compound 1],64,216,> 256,> 864,30,–,–,–,–,–,–
N#C/C=C/c1ccc(-c2ccc(O)c(C34CC5CC(CC(C5)C3)C4)c2)cc1 [Compound 4],–,361,≥ 32,90,8.3 ± 1.4,>= 32 µg/mL and 128 [128] µg/mL,128 µg/mL and 361 µM,128 µg/mL and 360 µM,32 µg/mL,–,–
O=C(/C=C/c1ccc(-c2ccc(O)c(C34CC5CC(CC(C5)C3)C4)c2)cc1)NO [Compound 5],≥ 32,164,–,> 657,–,64 µg/mL,–,–,>= 32 µg/mL and >256 µg/mL,1.1 ± 0.6,–
O=C(/C=C/c1ccc(-c2ccc(O)c(C34CC5CC(CC(C5)C3)C4)c2)cc1)Nc1ccc(O)cc1 [Compound 6],–,> 549,–,> 550,6.6 ± 0.5,>= 32 µg/mL and >256 µg/mL,–,–,>= 32 µg/mL and >256 µg/mL,–,–
O=C(O)/C(F)=C\c1ccc(-c2ccc(O)c(C34CC5CC(CC(C5)C3)C4)c2)cc1 [Compound 7],2 to 4,10,–,10,> 3,4 µg/mL,16 µg/mL and 40 µM,16 µg/mL and 40 µM,1 to 4 µg/mL and 4 µg/mL,–,–
C/C(=C\c1ccc(-c2ccc(O)c(C34CC5CC(CC(C5)C3)C4)c2)cc1)C(=O)O [Compound 8],2 to 4,5,1 to 4,3,7.19 ± 1.27,2 µg/mL,8 µg/mL and 20 µM,8 µg/mL and 21 µM,1 µg/mL,–,–
O=C(O)CCc1ccc(-c2ccc(O)c(C34CC5CC(CC(C5)C3)C4)c2)cc1 [Compound 10],16,42,16,42,48.4 ± 0.88,16 [16] µg/mL,16 µg/mL and 42 µM,32 µg/mL and 85 µM,16 µg/mL,–,–
COc1cc(-c2ccc(/C=C/C(=O)O)cc2)cc(C23CC4CC(CC(C4)C2)C3)c1O [Compound 11],16,40,8,20,–,–,32 µg/mL and 80 µM,–,–,–,–
O=C(O)/C=C/c1ccc(-c2cc3c(c(C45CC6CC(CC(C6)C4)C5)c2)OCCO3)cc1 [Compound 12],4,9,2,5,–,–,–,–,–,–,0.23 ± 0.07
CC(=O)NCc1cc(-c2ccc(/C=C/C(=O)O)cc2)cc(C23CC4CC(CC(C4)C2)C3)c1O [Compound 13],8,18,4,9,–,–,16 µg/mL and 36 µM,16 µg/mL and 36 µM,–,–,1.24 ± 0.07
O=Cc1cc(-c2ccc(/C=C/C(=O)O)cc2)cc(C23CC4CC(CC(C4)C2)C3)c1O [Compound 15],64,159,64,159,–,–,–,–,–,–,1.64 ± 0.03

# From PMC7912516, “New Antimicrobials Based on the Adarotene Scaffold with Activity against Multi-Drug Resistant Staphylococcus aureus and Vancomycin-Resistant Enterococcus” (Antibiotics, 2021)
